For series [1], the system named is Plasmodium falciparum. The series can be described thus: Antiplasmodial activity against chloroquine-sensitive Plasmodium falciparum 3D7 measured after 72 hrs by DAPI staining based high throughput screening assay. Type of series: functional. To be noted: 3D7, 72 h.
Series [2] has as its system Plasmodium falciparum. In words: Antiplasmodial activity against chloroquine-sensitive Plasmodium falciparum 3D7. The series is classed as functional.
For series [3], the system named is Plasmodium falciparum. The series can be described thus: Antiplasmodial activity against chloroquine-resistant Plasmodium falciparum Dd2. The series is classed as functional.
A short description of series [4]: Growth inhibition of HEK293 cells at 120 uM relative to control. The series is classed as cell-based. To be noted: human, read-out: GI.
For series [5], the system named is Plasmodium falciparum. The series can be described thus: Antiplasmodial activity against chloroquine-resistant Plasmodium falciparum Dd2 measured after 72 hrs by DAPI staining based high throughput screening assay. The series is classed as functional. To be noted: Dd2, 72 h.
Series [6] concerns HEK293. The series can be described thus: Growth inhibition of HEK293 cells. Type of series: cell-based. To be noted: Homo sapiens.
Series [7] can be described thus: Growth inhibition of HEK293 cells at 100 uM relative to control. The series is classed as cell-based. To be noted: human, read-out: GI.
The nature of series [8]: Selectivity index, ratio of IC50 for HEK293 cells to IC50 for chloroquine-resistant Plasmodium falciparum Dd2. Type of series: toxicity. To be noted: human; read-out: Ratio IC50.
Series [9] can be described thus: Growth inhibition of HEK293 cells at 20 uM relative to control. To be noted: human, read-out: GI. The series is classed as cell-based.
Series [10] can be described thus: Growth inhibition of HEK293 cells at 40 uM relative to control. Type of series: cell-based. To be noted: human, read-out: GI.
Series [11] has as its system Plasmodium falciparum. The series can be described thus: Antiplasmodial activity against chloroquine-resistant Plasmodium falciparum Dd2 at 40 uM measured after 72 hrs by DAPI staining based high throughput screening assay relative to control. The series is classed as functional.

SMILES strings stand for the structures. Some results are limits rather than exact numbers.

With `CC(C)C[C@H]1C[C@@]2(CC[C@H]3C[C@@H]2C3(C)C)OC2=C1C(=O)C(C)(C)C(=O)C2(C)C`, in [1], half-maximal inhibition (IC50) was put at 6700 nM.
As to `Cc1c(O)c(C(=O)CCc2ccccc2)c2c(c1O)[C@@H]1C3=C(O[C@]1(C(C)C)O2)C(C)(C)C(=O)C(C)(C)C3=O`, the values for the IC50 in [1], in series [2] and in series [3] were 1070 nM, 290 nM and 440 nM, respectively. Also, the inhibition at 120 µM in series [4] stood at 85%.
In series [1], `C=C1CC[C@H]2[C@@H](CC(C)C)C3=C(O[C@]2(C)CC[C@@H]2[C@@H]1CC2(C)C)C(C)(C)C(=O)C(C)(C)C3=O` registered a half-maximal inhibitory concentration (IC50) of 8900 nM.
On to `COc1ccc2nc3cc(Cl)ccc3c(Nc3cc(CN4CCCC4)c(O)c(CN4CCCC4)c3)c2n1` [PYRONARIDINE], for which the IC50 in series [1] stood at 11.9 nM; in series [5] it was 18 nM; in series [6], 5220 nM.
As to `CC(C)CC(=O)c1c(O)c2c(c3c1O[C@]1(C(C)C)OC4=C(C(=O)C(C)(C)C(=O)C4(C)C)[C@H]31)OC1=C(C(=O)C(C)(C)C(=O)C1(C)C)[C@@H]2CC(C)C`, the IC50 was determined as 1000 nM in series [2] and 1490 nM in series [3].
As to `C=C1CC[C@H]2[C@H](CC(C)C)C3=C(O[C@]2(C)CC[C@@H]2[C@@H]1CC2(C)C)C(C)(C)C(=O)C(C)(C)C3=O`, the IC50 in series [1] was determined as 11300 nM.
In the case of `CC(C)CC(=O)c1c(O)cc(O)c2c1O[C@@]1(C(C)C)OC3=C(C(=O)C(C)(C)C(=O)C3(C)C)[C@@H]21`, the IC50 in series [1] is 10500 nM. Moreover, the inhibition at 100 µM in [7] stood at 59%.
With `CC(C)CC(C1=C(O)C(C)(C)C(=O)C(C)(C)C1=O)C1=C(O)C(C)(C)C(=O)C(C)(C)C1=O`, the IC50 was found to be 440 nM in series [1], 5300 nM in series [2] and 8800 nM in series [3]. In addition, the inhibition at 120 µM in series [4] was 42%.
`Cc1c2c(c(O)c3c1OC1=C(C(=O)C(C)(C)C(=O)C1(C)C)[C@@H]3CC(C)C)C(=O)C[C@@H](c1ccccc1)O2` yielded an IC50 in series [1] of 10700 nM.
`CC(C)C[C@H]1C2=C(O[C@@]3(C)C=C4[C@@H](C[C@@H]13)[C@@H](C)CC[C@@H]4C(C)C)C(C)(C)C(=O)C(C)(C)C2=O` registered an IC50 in series [1] of 26900 nM. The inhibition at 100 µM in series [7] came to 68%.
Consider `CC(C)CC(=O)c1c(O)cc2c(c1O)[C@@H](CC(C)C)C1=C(O2)C(C)(C)C(=O)C(C)(C)C1=O`, for which the 50% inhibitory concentration (IC50) in series [1] was 1800 nM; in series [5] it was 4000 nM; in series [6], 11400 nM. Moreover, the selectivity ratio in series [8] is less than 10.
`C[C@H]1[C@H](OC(=O)CCC(=O)O)O[C@@H]2O[C@@]3(C)CC[C@H]4[C@H](C)CC[C@@H]1[C@@]24OO3` [ARTESUNATE] showed an IC50 in series [1] of 1 nM. For the same compound, the inhibition at 20 µM in series [9] amounted to 94%.
In the case of `CC(C)C[C@@H]1OC12C(=O)C(C)(C)C(=O)C(C)(C)C2=O`, the figures for the IC50 in series [1], in series [5] and in series [6] were 3000 nM, 2530 nM and 15900 nM, respectively. Besides, in [8], the selectivity ratio is less than 10.
Regarding `COc1ccc(C[C@H](N)C(=O)N[C@H]2[C@@H](O)[C@H](n3cnc4c(N(C)C)ncnc43)O[C@@H]2CO)cc1` [PUROMYCIN], the IC50 in series [5] stood at 61 nM; in [6], 399 nM.
With `CCc1nc(N)nc(N)c1-c1ccc(Cl)cc1` [PYRIMETHAMINE], the IC50 in series [1] is 8 nM. Moreover, the inhibition at 40 µM in series [10] amounted to 62%. The compound further showed an Activity in series [11] of 62%.
In series [1], `CC(C)[C@]12OC3=C(C(=O)C(C)(C)C(=O)C3(C)C)[C@H]1C1=C(O2)C(C)(C)C(=O)C(C)(C)C1=O` had an IC50 of 14000 nM.

As a reminder, the IC50 is the concentration that gives 50% inhibition. The low end stands for greater potency, the high end for weaker potency.

These data come from ChEMBL document CHEMBL4017462, “Antiplasmodial β-triketones from the flowers of the Australian tree Angophora woodsiana” (Bioorg Med Chem Lett, 2017).
